Key:
Type in all cases: cell-based
HeLa-APL = assay: SRB colorimetric cell growth inhibition assay, HeLa-APL (aplidine resistant); conditions: Homo sapiens, HELA-APL; for GI50: GI=growth inhibition, read-out: GI50 HELA-APL; for CC50: cell killing (cytotoxic effect), read-out: LC50 HELA-APL; for IC (TGI): total growth inhibition (cytostatic effect), read-out: TGI HELA-APL
From the text: (§1) The finality of these assays is to interrupt the growth of an “in vitro” tumor cell culture by means a continued exhibition of the cells to the sample to be testing.
(§2) A colorimetric type of assay, using sulforhodamine B (SRB) reaction has been adapted for a quantitative measurement of cell growth and viability (following the technique described by P. A. Skehan, et al., J. Natl. Cancer Inst. 1990, 82, 1107-1112).
(§3) This form of assay employs 96 well cell culture microplates of 9 mm diameter (T. Mosmann et al., J. of Immunological Methods 1983, 65, 55-63; G. T. Faircloth et al., J. of Tissue and Culture Methods 1988, 11, 201-205).
(§4) Most of the cell lines are obtained from American Type Culture Collection (ATCC) derived from different human cancer types.
(§5) The values for mean +/− SD of data from triplicate wells are calculated. Some parameters for cellular responses can be calculated: GI=growth inhibition, TGI=total growth inhibition (cytostatic effect) and LC=cell killing (cytotoxic effect).

SK-BR-3 = assay: SRB colorimetric cell growth inhibition assay, SK-BR-3; conditions: Homo sapiens, SK-BR-3, SK-BR-3; for GI50: GI=growth inhibition, read-out: GI50 SK-BR-3; for CC50: cell killing (cytotoxic effect), read-out: LC50 SK-BR-3; for IC (TGI): total growth inhibition (cytostatic effect), read-out: TGI SK-BR-3
From the text: as §1, §2, §3, §4, §5

LoVo-Dox = assay: SRB colorimetric cell growth inhibition assay, LoVo-Dox (MDR); conditions: Homo sapiens, LOVO-DOX; for GI50: GI=growth inhibition, read-out: GI50 LOVO-DOX; for CC50: cell killing (cytotoxic effect), read-out: LC50 LOVO-DOX; for IC (TGI): total growth inhibition (cytostatic effect), read-out: TGI LOVO-DOX
From the text: as §1, §2, §3, §4, §5

HT-29 = assay: SRB colorimetric cell growth inhibition assay, HT-29; conditions: Homo sapiens, HT-29, HT-29; for GI50: GI=growth inhibition, read-out: GI50 HT-29; for CC50: cell killing (cytotoxic effect), read-out: LC50 HT-29; for IC (TGI): total growth inhibition (cytostatic effect), read-out: TGI HT-29
From the text: as §1, §2, §3, §4, §5

A-549 = assay: SRB colorimetric cell growth inhibition assay, A-549; conditions: Homo sapiens, A549, A-549; for GI50: GI=growth inhibition, read-out: GI50 A-549; for CC50: cell killing (cytotoxic effect), read-out: LC50 A-549; for IC (TGI): total growth inhibition (cytostatic effect), read-out: TGI A-549
From the text: as §1, §2, §3, §4, §5

IGROV = assay: SRB colorimetric cell growth inhibition assay, IGROV; conditions: Homo sapiens, IGROV; for GI50: GI=growth inhibition, read-out: GI50 IGROV; for CC50: cell killing (cytotoxic effect), read-out: LC50 IGROV; for IC (TGI): total growth inhibition (cytostatic effect), read-out: TGI IGROV
From the text: as §1, §2, §3, §4, §5

PANC-1 = assay: SRB colorimetric cell growth inhibition assay, PANC-1; conditions: Homo sapiens, PANC-1, PANC-1; for GI50: GI=growth inhibition, read-out: GI50 PANC-1; for CC50: cell killing (cytotoxic effect), read-out: LC50 PANC-1; for IC (TGI): total growth inhibition (cytostatic effect), read-out: TGI PANC-1
From the text: as §1, §2, §3, §4, §5

LoVo = assay: SRB colorimetric cell growth inhibition assay, LoVo; conditions: Homo sapiens, LoVo; for GI50: GI=growth inhibition, read-out: GI50 LOVO; for CC50: cell killing (cytotoxic effect), read-out: LC50 LOVO; for IC (TGI): total growth inhibition (cytostatic effect), read-out: TGI LOVO
From the text: as §1, §2, §3, §4, §5

IGROV-ET = assay: SRB colorimetric cell growth inhibition assay, IGROV-ET (ET-743 resistant); conditions: Homo sapiens, IGROV-ET; for GI50: GI=growth inhibition, read-out: GI50 IGROV-ET; for CC50: cell killing (cytotoxic effect), read-out: LC50 IGROV-ET; for IC (TGI): total growth inhibition (cytostatic effect), read-out: TGI IGROV-ET
From the text: as §1, §2, §3, §4, §5

SK-MEL-28 = assay: SRB colorimetric cell growth inhibition assay, SK-MEL-28; conditions: Homo sapiens, SK-MEL-28, MEL-28; for GI50: GI=growth inhibition, read-out: GI50 MEL-28; for CC50: cell killing (cytotoxic effect), read-out: LC50 MEL-28; for IC (TGI): total growth inhibition (cytostatic effect), read-out: TGI MEL-28
From the text: as §1, §2, §3, §4, §5

DU-145 = assay: SRB colorimetric cell growth inhibition assay, DU-145; conditions: Homo sapiens, DU-145, DU-145; for GI50: GI=growth inhibition, read-out: GI50 DU-145; for CC50: cell killing (cytotoxic effect), read-out: LC50 DU-145; for IC (TGI): total growth inhibition (cytostatic effect), read-out: TGI DU-145
From the text: as §1, §2, §3, §4, §5

HeLa = assay: SRB colorimetric cell growth inhibition assay, HeLa; conditions: Homo sapiens, HeLa; for GI50: GI=growth inhibition, read-out: GI50 HELA; for CC50: cell killing (cytotoxic effect), read-out: LC50 HELA; for IC (TGI): total growth inhibition (cytostatic effect), read-out: TGI HELA
From the text: as §1, §2, §3, §4, §5

Structure (SMILES) | GI50 (HeLa-APL) [µM] | CC50 (HeLa-APL) [µM] | IC (TGI) (HeLa-APL) [µM] | GI50 (SK-BR-3) [µM] | CC50 (SK-BR-3) [µM] | IC (TGI) (SK-BR-3) [µM] | GI50 (LoVo-Dox) [µM] | CC50 (LoVo-Dox) [µM] | IC (TGI) (LoVo-Dox) [µM] | GI50 (HT-29) [µM] | CC50 (HT-29) [µM] | IC (TGI) (HT-29) [µM] | GI50 (A-549) [µM] | CC50 (A-549) [µM] | IC (TGI) (A-549) [µM] | GI50 (IGROV) [µM] | CC50 (IGROV) [µM] | IC (TGI) (IGROV) [µM] | GI50 (PANC-1) [µM] | CC50 (PANC-1) [µM] | also measured
COc1cc(-c2c3c4cc(OC)c(OC(C)C)cc4oc(=O)c3n3ccc4c(OC(C)C)c(OC)c(OC)cc4c23)ccc1OC(C)C [Compound 27] | 13 | 15.2 | 15.2 | 0.881 | 14.1 | 3.25 | 15.2 | 15.2 | 15.2 | 0.144 | 15.2 | 2.17 | 5.49 | 15.2 | 15.2 | 1.15 | 15.2 | 5.06 | 4.41 | 15.2 | IC (TGI) (PANC-1): 13 µM; GI50 (LoVo): 0.27 µM; CC50 (LoVo): 15.2 µM; IC (TGI) (LoVo): 2.17 µM; GI50 (IGROV-ET): 10.4 µM; CC50 (IGROV-ET): 15.2 µM; IC (TGI) (IGROV-ET): 15.2 µM; GI50 (SK-MEL-28): 4.47 µM; CC50 (SK-MEL-28): 15.2 µM; IC (TGI) (SK-MEL-28): 9.35 µM; GI50 (DU-145): 0.976 µM; CC50 (DU-145): 12.6 µM; IC (TGI) (DU-145): 3.95 µM; GI50 (HeLa): 4.04 µM; CC50 (HeLa): 15.2 µM; IC (TGI) (HeLa): 9.47 µM
CCCCCCCC(=O)Oc1ccc(-c2c3n(c4c(=O)oc5cc(OC(=O)CCCCCCC)c(OC)cc5c24)CCc2cc(OC(=O)CCCCCCC)c(OC)cc2-3)cc1OC [Compound 28] | 9.53 | 11.4 | 11.4 | 0.941 | 11.4 | 4.73 | 11.4 | 11.4 | 11.4 | 0.111 | 11.4 | 1.2 | 1.39 | 11.4 | 11.4 | 1.64 | 9.61 | 3.97 | 1.91 | 11.4 | IC (TGI) (PANC-1): 11.4 µM; GI50 (LoVo): 0.634 µM; CC50 (LoVo): 11.4 µM; IC (TGI) (LoVo): 5.16 µM; GI50 (IGROV-ET): 11.4 µM; CC50 (IGROV-ET): 11.4 µM; IC (TGI) (IGROV-ET): 11.4 µM; GI50 (SK-MEL-28): 2.24 µM; CC50 (SK-MEL-28): 11.4 µM; IC (TGI) (SK-MEL-28): 7.28 µM; GI50 (DU-145): 0.315 µM; CC50 (DU-145): 7.32 µM; IC (TGI) (DU-145): 1.47 µM; GI50 (HeLa): 2.76 µM; CC50 (HeLa): 11.4 µM; IC (TGI) (HeLa): 9.24 µM
COc1cc(-c2c3c4cc(OC)c(OC(=O)CCC5CCCCC5)cc4oc(=O)c3n3ccc4cc(OC(=O)CCC5CCCCC5)c(OC)cc4c23)ccc1OC(=O)CCC1CCCCC1 [Compound 12] | 3.66 | 10.9 | 10.9 | 0.698 | 10.9 | 3.45 | 10.9 | 10.9 | 10.9 | 0.0811 | 10.9 | 0.841 | 1.2 | 10.9 | 6.64 | 1.42 | 8.01 | 3.38 | 1.62 | 10.9 | IC (TGI) (PANC-1): 8.94 µM; GI50 (LoVo): 1.83 µM; CC50 (LoVo): 10.9 µM; IC (TGI) (LoVo): 7.41 µM; GI50 (IGROV-ET): 10.9 µM; CC50 (IGROV-ET): 10.9 µM; IC (TGI) (IGROV-ET): 10.9 µM; GI50 (SK-MEL-28): 1.77 µM; CC50 (SK-MEL-28): 10.9 µM; IC (TGI) (SK-MEL-28): 5.98 µM; GI50 (DU-145): 0.249 µM; CC50 (DU-145): 7.07 µM; IC (TGI) (DU-145): 1.43 µM; GI50 (HeLa): 1.66 µM; CC50 (HeLa): 10.9 µM; IC (TGI) (HeLa): 7.5 µM

Reference: patent US7396837B2, “Antitumoral analogs of lamellarins” (Pharma Mar, S.A.U., priority 2002, dated 2008)
